Laboratory results published in paper PMC10033419, “Blocking NS3–NS4B interaction inhibits dengue virus in non-human primates” (Nature, 2023).
Values joined by “and” are separate entries in the source; they are usually repeats but may differ in a detail not shown here. Equal entries are not always repeated. Where two headings read alike, the source gives them in different places.

Key:
[1] = tested on: DENV-2/16681/eGFP; experiment: microbe, parasite or virus in culture; type: cell-based; settings: Dengue virus
[2] = tested on: DENV-2 RL strain; experiment: Antiviral assay, viral RNA RT-qPCR, Vero cells; type: cell-based
[3] = tested on: DENV-2 RL strain; experiment: Antiviral assay, viral RNA RT-qPCR, C6/36 cells; type: cell-based
[4] = tested on: WNV R94224; experiment: microbe, parasite or virus in culture; type: cell-based; settings: West Nile virus
[5] = tested on: CHIKV S27; experiment: CPE inhibition assay ATPLite, Huh-7; type: cell-based; settings: Chikungunya virus
[6] = tested on: DENV-2 RL strain; experiment: Day 3 viraemia model, high viral inoculum (10^6 PFU); type: in vivo, AG129 mice; settings: for Av Log 10 (average): group average; for Av Log 10 (Ave/Med: median): group median; for Copy number / Log 10 (copy number): individual animals, listed as 64281802-AAA
[7] = Study 1+2+3 compiled data, 0,2 mg/kg/d
[8] = Study 1+2+3 compiled data, 0,6 mg/kg/d
[9] = Study 1+2+3 compiled data, 2 mg/kg/d
[10] = Study 1+2+3 compiled data, 2 mg/kg/d, 2 mg/kg/day
[11] = Study 1+2+3 compiled data, 6 mg/kg/d
[12] = Study 1+2+3 compiled data, 6 mg/kg/d, 6 mg/kg/day
[13] = Study 1+2+3 compiled data, 20 mg/kg/d
[14] = Study 1+2+3 compiled data, 20 mg/kg/d, 20 mg/kg/day

**Q.** With `COc1cc(N[C@H](C(=O)c2c[nH]c3ccc(OC(F)(F)F)cc23)c2ccc(Cl)cc2OC)cc(S(C)(=O)=O)c1` [JNJ-1802] as the compound, how does the EC50 ([1]; DENV2, THP-1, THP-1/DC-SIGN, read-out: EC50) read?
**A.** 0.173 ± 0.043 nM

**Q.** And the EC90 ([1]; DENV2, THP-1, THP-1/DC-SIGN, read-out: EC90)?
**A.** 0.283 ± 0.056 nM

**Q.** And the EC50 ([1]; DENV2, THP-1, read-out: EC50, individual data)?
**A.** 0.2 nM

**Q.** What about the EC90 ([1]; DENV2, THP-1, read-out: EC90, individual data) of the same compound?
**A.** 0.25 nM

**Q.** What about the EC90 ([2]; Dengue virus, DENV2, Vero, Vero) of the same compound?
**A.** 0.275 ± 0.081 nM

**Q.** What about the EC50 ([2]; Dengue virus, DENV2, Vero, Vero cells, DENV-2RL, EXP1-EXP3, read-out: EC50, single experiments) of the same compound?
**A.** 0.041 nM

**Q.** What about the EC90 ([2]; Dengue virus, DENV2, Vero, Vero cells, DENV-2RL, EXP1-EXP3, read-out: EC90, single experiments) of the same compound?
**A.** 0.19 nM

**Q.** And the EC50 ([2]; Dengue virus, DENV2, Vero, Vero cells, DENV-2RL, median, read-out: EC50 MEDIAN)?
**A.** 0.068 nM

**Q.** What about the EC90 ([2]; Dengue virus, DENV2, Vero, Vero cells, DENV-2RL, median, read-out: EC90 MEDIAN) of the same compound?
**A.** 0.29 nM

**Q.** And the EC50 ([2]; Dengue virus, DENV2, Vero, Vero, read-out: EC50)?
**A.** 0.062 ± 0.019 nM

**Q.** And the EC50 ([2]; Vero cells, DENV-2RL, EXP1-EXP3, read-out: EC50, single experiments)?
**A.** 0.077 nM

**Q.** What about the EC90 ([2]; Vero cells, DENV-2RL, EXP1-EXP3, read-out: EC90, single experiments) of the same compound?
**A.** 0.35 nM

**Q.** And the EC50 ([3]; C3/36 cells, DENV-2RL, EXP 1 and EXP 2, read-out: EC50, individual values)?
**A.** 1.34 nM and 1.19 nM and 1.38 nM

**Q.** What about the EC90 ([3]; C3/36 cells, DENV-2RL, EXP 1 and EXP 2, read-out: EC90, individual values) of the same compound?
**A.** 7.33 nM and 7.51 nM and 5.46 nM

**Q.** And the EC50 ([3]; Dengue virus, DENV2, C6/36, C3/36 cells, DENV-2RL, EXP 1 and EXP 2, read-out: EC50, individual values)?
**A.** 1.05 nM

**Q.** And the EC90 ([3]; Dengue virus, DENV2, C6/36, C3/36 cells, DENV-2RL, EXP 1 and EXP 2, read-out: EC90, individual values)?
**A.** 5.52 nM

**Q.** What about the EC50 ([3]; Dengue virus, DENV2, C6/36, C3/36 cells, DENV-2RL, mean, read-out: EC50 Mean) of the same compound?
**A.** 1.2 nM

**Q.** What about the EC90 ([3]; Dengue virus, DENV2, C6/36, C3/36 cells, DENV-2RL, mean, read-out: EC90 Mean) of the same compound?
**A.** 6.46 nM

**Q.** And the EC50 ([3]; Dengue virus, DENV2, C6/36, C6/36, read-out: EC50)?
**A.** 1.24 ± 0.14 nM

**Q.** What about the EC90 ([3]; Dengue virus, DENV2, C6/36, C6/36, read-out: EC90) of the same compound?
**A.** 6.5 ± 1 nM

**Q.** What about the EC50 ([4]; Vero C1008) of the same compound?
**A.** 250 nM

**Q.** And the EC50 ([4]; Vero C1008, read-out: mean EC50, range)?
**A.** 250 to 1100 nM

**Q.** And the EC50 ([5]; Huh-7)?
**A.** > 25000 nM

**Q.** What about the EC90 ([5]; Huh-7, read-out: EC90, Mean) of the same compound?
**A.** > 25000 nM

**Q.** What about the “viraemia day 3 p.i., average Log 10” value ([6]; 0,3 mg/kg/d q.d.) of the same compound?
**A.** 6.63 log10 viral RNA copies/mL

**Q.** What about the “viraemia day 3 p.i., median Log 10” value ([6]; 0,3 mg/kg/d q.d.) of the same compound?
**A.** 6.66 log10 viral RNA copies/mL

**Q.** What about the “viraemia day 3 p.i., average Log 10” value ([6]; 3 mg/kg/d q.d.) of the same compound?
**A.** 3.84 log10 viral RNA copies/mL

**Q.** What about the “viraemia day 3 p.i., median Log 10” value ([6]; 3 mg/kg/d q.d.) of the same compound?
**A.** 4.27 log10 viral RNA copies/mL

**Q.** And the “mice with undetectable viral RNA” value ([6]; 20 mg per kg per day b.i.d.)?
**A.** 13 out of 14

**Q.** What about the “mice with undetectable viral RNA” value ([6]; 30 mg per kg q.d.) of the same compound?
**A.** five out of eight

**Q.** What about the “viraemia day 3 p.i., average Log 10” value ([6]; 30 mg/kg/d q.d.) of the same compound?
**A.** 3.09 log10 viral RNA copies/mL

**Q.** And the “viraemia day 3 p.i., median Log 10” value ([6]; 30 mg/kg/d q.d.)?
**A.** 2.59 log10 viral RNA copies/mL

**Q.** And the “mice with undetectable viral RNA” value ([6]; 60 mg per kg per day b.i.d.)?
**A.** four out of seven

**Q.** What about the “Av Log 10 (average)” value [6, 7] of the same compound?
**A.** 5.92

**Q.** And the “Av Log 10 (Ave/Med: median)” value [6, 7]?
**A.** 6.05

**Q.** And the Copy number [6, 7]?
**A.** 1.86E+06 and 1.20E+06 and 1.13E+06 and 8.80E+05 and 2.24E+05 and 2.37E+06 and 1.58E+06 and 7.37E+04 and 5.97E+06 and 8.67E+05 and 1.42E+06 and 1.06E+06 and 9.43E+04

**Q.** What about the “Log 10 (copy number)” value [6, 7] of the same compound?
**A.** 6.27 and 6.08 and 6.05 and 5.94 and 5.35 and 6.38 and 6.20 and 4.87 and 6.78 and 6.15 and 6.03 and 4.97

**Q.** What about the “Av Log 10 (average)” value [6, 8] of the same compound?
**A.** 4.22

**Q.** And the “Av Log 10 (Ave/Med: median)” value [6, 8]?
**A.** 4.52

**Q.** What about the Copy number [6, 8] of the same compound?
**A.** 3.93E+02

**Q.** What about the “Log 10 (copy number)” value [6, 8] of the same compound?
**A.** 2.59

**Q.** And the “Av Log 10 (average)” value [6, 9]?
**A.** 4.68

**Q.** What about the “Av Log 10 (Ave/Med: median)” value [6, 9] of the same compound?
**A.** 4.60

**Q.** And the Copy number [6, 10]?
**A.** 8.93E+05 and 4.00E+05 and 3.96E+05 and 1.24E+06 and 6.51E+05 and 1.32E+04 and 2.02E+05 and 2.06E+04

**Q.** What about the “Log 10 (copy number)” value [6, 10] of the same compound?
**A.** 5.95 and 5.60 and 6.09 and 5.81 and 3.95

**Q.** What about the “Av Log 10 (average)” value [6, 11] of the same compound?
**A.** 4.33

**Q.** What about the “Av Log 10 (Ave/Med: median)” value [6, 11] of the same compound?
**A.** 4.37

**Q.** And the Copy number [6, 12]?
**A.** 5.85E+04 and 1.40E+05 and 1.03E+05 and 2.15E+04 and 1.94E+05 and 8.27E+04 and 1.06E+04 and 2.60E+04 and 9.12E+03 and 5.17E+03 and 3.62E+04 and 5.97E+03 and 3.93E+02

**Q.** What about the “Log 10 (copy number)” value [6, 12] of the same compound?
**A.** 4.77 and 5.15 and 5.01 and 4.33 and 5.29 and 4.92 and 4.03 and 4.41 and 3.96 and 3.71 and 4.56 and 4.11 and 3.78 and 2.59

**Q.** And the “Av Log 10 (average)” value [6, 13]?
**A.** 2.70

**Q.** And the “Av Log 10 (Ave/Med: median)” value [6, 13]?
**A.** 2.59

**Q.** What about the Copy number [6, 14] of the same compound?
**A.** 1.05E+04 and 3.93E+02

**Q.** What about the “Log 10 (copy number)” value [6, 14] of the same compound?
**A.** 4.02 and 2.59
